How the values were obtained:
[1] = test system: sickle cell haemoglobin (HbS); assay: HbS gelation assay (solubility Csol of deoxygenated HbS); type: biochemical, human
Experimental: A number of in vitro methods have been developed for testing the effects of compounds of the functioning of HbS molecules. One such method determines the ability of a compound to inhibit gel formation in HbS solutions. In this gelation assay, Hb solution in phosphate buffer, pH 7.0, at physiological concentrations are mixed at 0° C. with the test compound and deoxygenated by evacuation. […] The solutions are then transferred to centrifuge tubes and equilibrated at 37° C. for 30 minutes before centrifugation at 150,000 g for 1 hour. The supernatant is decanted from the gel and the Hb concentration (Csol) thereof determined spectrophotometrically. For sickle cell haemoglobin without addition of anti-sickling agent, the Csol is typically 17 gm/dl. This compares with a Csol of 23 gm/dl for haemoglobin extracted from individuals having sickle cell trait.

[2] = test system: HbS; assay: Rate of polymerisation of HbS: lag time before onset of gelation after temperature jump; type: biochemical, human; settings: different molar ratios of dipeptide:HbS, FIG. 4
Experimental: The rate of polymerisation of HbS molecules may be followed by spectrophotometrically monitoring the onset of gelation, after a temperature jump from 0° C. to 37° C., in a concentrated HbS solution. An effective anti-sickling agent should reduce the rate of polymerisation by at least ten-fold.

[3] = test system: SS cells; assay: Oxygen dissociation curve (P50) of sickle cells; type: cell-based, human
Source text: (§1) The uptake of oxygen by haemoglobin as a function of oxygen pressure gives a measure of the oxygen affinity of the haemoglobin and is often described by the value of P50, i.e. the pressure of oxygen at which haemoglobin is 50% saturated with O2. The P50 for HbS is typically higher than that for HbA, the decreased affinity for O2 compensating for the anaemia associated with the disease by facilitating release of O2 to the tissues. An agent which would decrease the P50 of HbS would cause the deoxy-form of the molecule to be less favoured and would thus inhibit polymerisation. It is possible to correlate the degree of oxygenation of sickle erythrocytes with the ability thereof to assume sickled morphology by counting deoxygenated cells using a light microscope. An anti-sickling agent which reduces the number of sickled cells produced at low oxygen concentrations would be effective in preventing or diminishing a crisis.

[4] = test system: whole sickle cells; assay: Microscopic whole cell sickling assay; type: cell-based, human
Source text: as §1
There are fewer sickle cells in the presence of the dipeptide over the entire range of oxygen concentration. […] In vivo, this increased reversibility would reduce the number of circulating irreversibly sickled cells (ISC).

[5] = Solubility in physiological buffers; type: physicochemical

## L-lysine-L-phenylalanine
[1]; FIG. 2
  effect on Csol of HbS: increase in Csol
[1]; in vitro
  inhibition of gelation of deoxygenated HbS solutions: inhibit the gelation
[1]; peptide:Hb tetramer ratio of 4.7:1, from linear plot of Csol versus log (peptide:Hb), HbS without agent typically 17 gm/dl
  Csol (solubility of homozygous sickle cell haemoglobin): 23 gm/dl
[1]; relative to L-phenylalanine
  increase of HbS solubility over L-phenylalanine: four-fold
[2]
  lag time before gelation (rate of polymerisation): increase in the delay before gelation
[3]; SS cells + 25 mM peptide, 3 hours incubation at 37° C., 5:1 molar ratio extra-cellular dipeptide:intra-cellular HbS, 51 mm without peptide
  P50: 41 mm of mercury
[3]; incubation with peptide
  oxygen affinity of cells: increase in oxygen affinity
[4]
  inhibition of whole cell sickling: inhibits whole cell sickling
[4]; compared with control
  proportion of sickled cells becoming unsickled as oxygen is made available: a greater proportion becomes unsickled
[4]; complete deoxygenation, in vitro dose response, FIG. 9, read-out: extra-cellular concentration reducing the number of sickled cells by 50%
  IC50: ~5 mM
[4]; pre-incubation with peptide, different partial pressures of oxygen
  percentage of sickled cells: substantially reduced
[4]; zero oxygen tension, FIG. 8
  pre-incubation time sufficient to protect against sickling: 15 min
[5]
  solubility in physiological buffers: readily soluble

Source: US4376766A, “Anti-sickling agents” (G.D. Searle & Co., priority 1980, dated 1983)
